# Measured values as given in patent publication US4556715A, “Nicotinic acid derivatives” (Kyorin Pharmaceutical Co., Ltd., priority 1980, dated 1985).
# Where two headings read alike, the source gives them in different places.
# Tests used:
# [1] = test system: serum and liver lipid levels in rats; test: Serum and liver lipid levels and relative liver weight in rats (100 mg/kg, 10 days); type: in vivo, Male rats of the Wistar strain; conditions: for response vs control in vivo at 100 mg/kg: Rattus norvegicus, po; for response vs control in vivo at 100 mg/kg / Relative liver weight, relative to Control (100): in parentheses, Control = (100); for Liver lipid levels Ch / Liver lipid levels PL / Liver lipid levels TG / Relative liver weight / Serum lipid levels Ch / Serum lipid levels PL / Serum lipid levels TG: 100 mg/kg p.o. 10 days, Mean ± S.E. (n = 9)
# Method: (2) Male rats of the Wistar strain weighing 160-180 g were fed a stock deit (CE-2, Japan CLEA, Tokyo) and water ad libitum. The present compounds and KCD-232 were suspended, respectively, in a 0.5% of CMC solution and give orally to rats once a day at a dose of 100 mg/kg b.w. for 10 days.
# Control rats were received the 0.5% CMC solution alone. The diet was withdrawn immediately after the last administration of compounds. Animals were sacrificed by decapitation 4 hr after the last administration and blood was collected, clotted and centrifuged to obtain serum. The liver was excised quickly and weighed. Total lipids were extracted from the serum and liver, and the levels of Ch, TG and PL were determined colorimetrically.
# [2] = test system: serum and liver lipid levels in normal rats; test: Effects on relative liver weight, serum and liver lipid levels in normal rats (100 mg/kg, 7 days); type: in vivo, Male Wistar strain rats
# Method: (1) Effects on relative liver weight, serum and liver lipid levels in normal rats
# Male Wistar strain rats, weighing 180-210 g were orally administered the present compounds (X=Cl, n1 =2, 3, 4 and n2 =1) and 4-(4-chlorobenzyloxy)benzyl nicotinate (KCD-232), being X=Cl, n1 =1, n2 =1, respectively, which were suspended in 0.5% carboxymethyl cellulose (CMC) solution once a day at a dose of 100 mg/kg b.w. for 7 days. The last administration was occured in rats fasted overnight. At 4 hr later blood was withdrawn from jugular vein, clotted and centrifuged to obtain serum. The liver was rapidly removed and weighed. Total lipids were extracted from the serum and liver, and cholesterol (Ch), triglycerides (TG) and phospholipids (PL) levels were determined.
# [3] = 240 h, Table 2, read-out: Liver lipid levels PL, relative to Control (100)
# [4] = 240 h, Table 3, read-out: Liver lipid levels PL, relative to Control (100)
# [5] = Table 2, read-out: Liver lipid levels Ch, relative to Control (100)
# [6] = Table 2, read-out: Liver lipid levels TG, relative to Control (100)
# [7] = Table 2, read-out: Serum lipid levels Ch, relative to Control (100)
# [8] = Table 2, read-out: Serum lipid levels PL, relative to Control (100)
# [9] = Table 2, read-out: Serum lipid levels TG, relative to Control (100)
# [10] = Table 3, read-out: Liver lipid levels Ch, relative to Control (100)
# [11] = Table 3, read-out: Liver lipid levels TG, relative to Control (100)
# [12] = Table 3, read-out: Serum lipid levels Ch, relative to Control (100)
# [13] = Table 3, read-out: Serum lipid levels PL, relative to Control (100)
# [14] = Table 3, read-out: Serum lipid levels TG, relative to Control (100)
# [15] = Table 1, 100 mg/kg p.o. 7 days, fasted overnight, mean ± S.E. (n = 6)
# [16] = Table 1, in parentheses, Control = (100)
Relative liver weight ([1]; Table 2) [g/100 g b.w.],"Relative liver weight, relative to Control (100) ([1]; Table 2)",SMILES,"response vs control in vivo at 100 mg/kg [1, 3] [%]","response vs control in vivo at 100 mg/kg [1, 4] [%]","response vs control in vivo at 100 mg/kg [1, 5] [%]","response vs control in vivo at 100 mg/kg [1, 6] [%]","response vs control in vivo at 100 mg/kg [1, 7] [%]","response vs control in vivo at 100 mg/kg [1, 8] [%]","response vs control in vivo at 100 mg/kg [1, 9] [%]","response vs control in vivo at 100 mg/kg [1, 10] [%]","response vs control in vivo at 100 mg/kg [1, 11] [%]","response vs control in vivo at 100 mg/kg [1, 12] [%]","response vs control in vivo at 100 mg/kg [1, 13] [%]","response vs control in vivo at 100 mg/kg [1, 14] [%]",Liver lipid levels Ch ([1]; Table 2) [mg/g liver],Liver lipid levels PL ([1]; Table 2) [mg/g liver],Liver lipid levels TG ([1]; Table 2) [mg/g liver],Serum lipid levels Ch ([1]; Table 2) [mg/dL],Serum lipid levels PL ([1]; Table 2) [mg/dL],Serum lipid levels TG ([1]; Table 2) [mg/dL],further results
4.10 ± 0.06,106,"O=C(OCCc1ccc(OCc2ccc(Cl)cc2)cc1)c1cccnc1 [n1=1, n2=2, 4-(4-Chlorobenzyloxy)phenethyl nicotinate]",105,104,78.3,82.9,78.1,76.8,44.2,106,79,70.9,64.7,27.3,2.38 ± 0.10,39.9 ± 0.8,5.24 ± 0.36,67.7 ± 3.3,114 ± 4.7,54.7 ± 6.5,"Liver lipid levels Ch ([1]; Table 3): 2.46 ± 0.14 mg/g liver; Liver lipid levels PL ([1]; Table 3): 37.5 ± 0.4 mg/g liver; Relative liver weight ([1]; Table 3): 3.80 ± 0.07 g/100 g b.w.; Serum lipid levels Ch ([1]; Table 3): 69.2 ± 3.9 mg/dL; Serum lipid levels PL ([1]; Table 3): 101 ± 4.5 mg/dL; Serum lipid levels TG ([1]; Table 3): 34.2 ± 2.9 mg/dL; Relative liver weight, relative to Control (100) ([1]; Table 3): 100"
3.97 ± 0.05,103,"O=C(OCCc1ccc(OCCc2ccc(Cl)cc2)cc1)c1cccnc1 [n1=2, n2=2, 4-(4-Chorophenethyloxy)phenetyl nicotinate]",107,,79.3,84.2,78.8,78.2,39.1,,,,,,2.41 ± 0.10,40.8 ± 0.3,5.32 ± 0.45,68.3 ± 3.7,116 ± 5,48.4 ± 4.8,
3.98 ± 0.06,103,"O=C(OCc1ccc(OCCc2ccc(Cl)cc2)cc1)c1cccnc1 [n1=2, n2=1, 4-[2-(4-Chlorophenyl)ethoxy]benzyl nicotinate]",102,,96.7,87,76.7,74,44,,,,,,2.94 ± 0.07,39.0 ± 0.7,5.50 ± 0.59,66.5 ± 2.2,110 ± 3.7,54.4 ± 5,"serum Ch, TG and PL (in words) ([2]; 100 mg/kg p.o. 7 days, compared with control): significantly reduced serum Ch, TG and PL; Liver lipid levels Ch [2, 15]: 3.78 ± 0.10 mg/g liver; Liver lipid levels PL [2, 15]: 37.2 ± 1.5 mg/g liver; Liver lipid levels TG [2, 15]: 11.49 ± 1.65 mg/g liver; Serum lipid levels Ch [2, 15]: 53.5 ± 2.2 mg/dL; Serum lipid levels PL [2, 15]: 69 ± 2.7 mg/dL; Serum lipid levels TG [2, 15]: 22.4 ± 4.3 mg/dL; Relative liver weight ([2]; Table 1, 100 mg/kg p.o. 7 days, mean ± S.E. (n = 6)): 3.17 ± 0.10 g/100 g b.w.; Liver lipid levels Ch, relative to Control (100) [2, 16]: 107; Liver lipid levels PL, relative to Control (100) [2, 16]: 101; Liver lipid levels TG, relative to Control (100) [2, 16]: 156; Relative liver weight, relative to Control (100) [2, 16]: 103; Serum lipid levels Ch, relative to Control (100) [2, 16]: 70; Serum lipid levels PL, relative to Control (100) [2, 16]: 68; Serum lipid levels TG, relative to Control (100) [2, 16]: 66"

# Further lines, the molecule ahead of its results:
SMILES,Relative liver weight ([1]; Table 2) [g/100 g b.w.],"Relative liver weight, relative to Control (100) ([1]; Table 2)","response vs control in vivo at 100 mg/kg [1, 3] [%]","response vs control in vivo at 100 mg/kg [1, 4] [%]","response vs control in vivo at 100 mg/kg [1, 5] [%]","response vs control in vivo at 100 mg/kg [1, 6] [%]","response vs control in vivo at 100 mg/kg [1, 7] [%]","response vs control in vivo at 100 mg/kg [1, 8] [%]","response vs control in vivo at 100 mg/kg [1, 9] [%]","response vs control in vivo at 100 mg/kg [1, 10] [%]","response vs control in vivo at 100 mg/kg [1, 11] [%]","response vs control in vivo at 100 mg/kg [1, 12] [%]","response vs control in vivo at 100 mg/kg [1, 13] [%]","response vs control in vivo at 100 mg/kg [1, 14] [%]",Liver lipid levels Ch ([1]; Table 2) [mg/g liver],Liver lipid levels PL ([1]; Table 2) [mg/g liver],Liver lipid levels TG ([1]; Table 2) [mg/g liver],Serum lipid levels Ch ([1]; Table 2) [mg/dL],Serum lipid levels PL ([1]; Table 2) [mg/dL],Serum lipid levels TG ([1]; Table 2) [mg/dL],further results
"O=C(OCCCCCCc1ccc(OCCCCCCc2ccc(Cl)cc2)cc1)c1cccnc1 [n1=6, n2=6, 6-{4-[6'-(4-Chlorophenyl)hexyloxy]phenyl}hexyl nicotinate]",,,,107,,,,,,103,64.3,79.3,64.9,23.7,,,,,,,"Liver lipid levels Ch ([1]; Table 3): 2.38 ± 0.08 mg/g liver; Liver lipid levels PL ([1]; Table 3): 38.7 ± 0.8 mg/g liver; Liver lipid levels TG ([1]; Table 3): 4.62 ± 0.15 mg/g liver; Relative liver weight ([1]; Table 3): 3.84 ± 0.10 g/100 g b.w.; Serum lipid levels Ch ([1]; Table 3): 77.4 ± 3.8 mg/dL; Serum lipid levels PL ([1]; Table 3): 101 ± 3.7 mg/dL; Serum lipid levels TG ([1]; Table 3): 29.8 ± 1.5 mg/dL; Relative liver weight, relative to Control (100) ([1]; Table 3): 101"
"O=C(OCCc1ccc(OCCCCc2ccc(Cl)cc2)cc1)c1cccnc1 [n1=4, n2=2, 4-[4-(4-Chlorophenyl)butoxy]phenethyl nicotinate]",,,,109,,,,,,98.3,79.7,74,67.1,24.9,,,,,,,"Liver lipid levels Ch ([1]; Table 3): 2.28 ± 0.09 mg/g liver; Liver lipid levels PL ([1]; Table 3): 39.6 ± 0.9 mg/g liver; Liver lipid levels TG ([1]; Table 3): 5.72 ± 0.40 mg/g liver; Relative liver weight ([1]; Table 3): 4.03 ± 0.07 g/100 g b.w.; Serum lipid levels Ch ([1]; Table 3): 72.2 ± 1.3 mg/dL; Serum lipid levels PL ([1]; Table 3): 104 ± 3.7 mg/dL; Serum lipid levels TG ([1]; Table 3): 31.3 ± 3.6 mg/dL; Relative liver weight, relative to Control (100) ([1]; Table 3): 106"
"O=C(OCCCCc1ccc(OCCCCc2ccc(Cl)cc2)cc1)c1cccnc1 [n1=4, n2=4, 4-{4-[4-(4-Chlorophenyl)butoxy]phenyl}butyl nicotinate]",3.90 ± 0.06,101,107,,79.3,112,70.8,69.2,31.5,,,,,,2.41 ± 0.08,40.9 ± 0.4,7.11 ± 0.53,61.4 ± 3.2,103 ± 4.4,39 ± 3.2,
"O=C(OCCCCc1ccc(OCc2ccc(Cl)cc2)cc1)c1cccnc1 [n1=1, n2=4, 4-[4-Chlorobenzyloxy)phenyl]butyl nicotinate]",4.44 ± 0.11,115,101,101,70.1,106,75.4,77,39.5,108,103,76,68.2,29.9,2.13 ± 0.04,38.4 ± 0.7,6.73 ± 0.51,65.4 ± 1.4,114 ± 2.5,48.9 ± 5.1,"Liver lipid levels Ch ([1]; Table 3): 2.51 ± 0.11 mg/g liver; Liver lipid levels PL ([1]; Table 3): 36.7 ± 0.9 mg/g liver; Liver lipid levels TG ([1]; Table 3): 7.42 ± 0.88 mg/g liver; Relative liver weight ([1]; Table 3): 3.91 ± 0.10 g/100 g b.w.; Serum lipid levels Ch ([1]; Table 3): 74.2 ± 2.5 mg/dL; Serum lipid levels PL ([1]; Table 3): 106 ± 3.6 mg/dL; Serum lipid levels TG ([1]; Table 3): 37.6 ± 3 mg/dL; Relative liver weight, relative to Control (100) ([1]; Table 3): 103"
